Measured values published in patent US7695948B2, “Antibodies that bind TNF-α converting enzyme” (Immunex Corporation, priority 1995, dated 2010).

Target: T1, TACE (Homo sapiens, UniProt P78536)
T1 construct: The TACE was isolated and purified from the membranes of the human monocytic cell line, THP-1; endogenous in cells; host or cells: THP-1 human monocytic cell line (ATCC TIB 202), stimulated to produce TNF-α; Enzyme was solubilised from plasma membranes and purified by chromatography
Assay: TACE activity assay (cleavage of TNF-α peptide substrate, HPLC)
Format: biochemical
Settings: dithiothreitol included in plasma membrane isolation from THP-1 cells
Method: As further described in Example 1, infra, a quantitative assay for TACE also may be used which assay involves incubating the peptide substrate, at about 1 mM, with TACE at 37° C. for a fixed period of time; stopping the reaction by the addition of an acid or a metal chelator; and determining the extent of cleavage by HPLC analysis.
This Example describes a method for purifying TACE. The TACE was isolated and purified from the membranes of the human monocytic cell line, THP-1, (ATCC no. TIB 202) that had been stimulated to produce TNF-α. THP-1 cells were chosen because they produce more TNF-α than HL-60 cells, a more commonly used human monocytic cell line. […]
This material was incubated at 37° C. for at least 4 hours with the TACE eluted from the DEAE-Sepharose, that had been treated with 1 mM N-methoxysuccinyl-Ala-Ala-Val -chloro-methylketone, 10 μg/ml leupeptin, and 1 mg/ml α1-protease inhibitor, all of which are commercially available. […] Based on this observation, a quantitative assay was established: the peptide, at 1 mM, was incubated with the enzyme at 37° C. for a fixed period of time, in the presence of 0.1 mM dichloroisocoumarin, 1 mM methoxysuccinyl-Ala-Ala-Pro-Val-chloromethyl-ketone, 10 μg/ml leupeptin, 10 μM bestatin, and 1 mg/ml α1-protease inhibitor (Sigma), all of which are commercially available. […]

T1 sequence (P78536 215-824): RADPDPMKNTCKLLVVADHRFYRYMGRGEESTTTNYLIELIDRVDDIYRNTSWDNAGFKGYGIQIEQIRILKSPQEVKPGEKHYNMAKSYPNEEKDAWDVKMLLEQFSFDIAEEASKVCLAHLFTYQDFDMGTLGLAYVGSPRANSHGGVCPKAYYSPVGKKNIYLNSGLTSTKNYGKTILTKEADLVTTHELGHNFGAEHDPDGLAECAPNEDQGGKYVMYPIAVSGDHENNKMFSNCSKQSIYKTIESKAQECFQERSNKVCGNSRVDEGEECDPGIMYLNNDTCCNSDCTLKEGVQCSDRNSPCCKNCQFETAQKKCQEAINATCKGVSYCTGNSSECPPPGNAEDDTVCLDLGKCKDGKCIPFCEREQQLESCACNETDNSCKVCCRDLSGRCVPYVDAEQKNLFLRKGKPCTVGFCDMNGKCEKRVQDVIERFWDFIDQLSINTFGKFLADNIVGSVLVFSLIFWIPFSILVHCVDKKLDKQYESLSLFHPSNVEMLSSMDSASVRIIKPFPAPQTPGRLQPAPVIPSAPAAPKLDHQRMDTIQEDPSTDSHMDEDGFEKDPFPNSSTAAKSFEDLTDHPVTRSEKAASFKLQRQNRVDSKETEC

With `O[C@H](CS)[C@H](O)CS` (racemic) [dithiothreitol] the TACE activity was “blocks TACE activity”.
